Earlier results, collected in PubChem BioAssay AID1259409 (Chemical Carcinogenesis Research Information System (CCRIS), 2018).

Tested on: rodent chemically induced tumor inhibition, incidence and multiplicity
Experiment: CCRIS tumor inhibitor studies

SMILES: Oc1ccccc1
- tumour outcome (control, treated, inhibition, significance) (Carcinogen: BENZO[A]PYRENE, 50-32-8, Dose [Inhibitor]: 0.03 MMOL/G OF DIET STARTING 8 D BEFORE AND CONTINUING THROUGH 3 D AFTER LAST CARCINOGEN TREATMENT (STUDY DURATION: 148, Route [Inhibitor]: ORAL, Species: MOUSE, Strain/Sex: ICR/FEMALE, Target Tissue: Type of Lesion: FORESTOMACH: NEOPLASM, Dose [Carcinogen]: 1 MG IN 0.2 ML CORN OIL 2/WK FOR 4 WK, Promoter: NONE USED): 100%, 100%, 0%, not significant
- tumour outcome (control, treated, inhibition, significance) (Carcinogen: BENZO[A]PYRENE, 50-32-8, Dose [Inhibitor]: 3 MG IN 0.1 ML ACETONE 3/WK ADMINISTERED SIMULTANEOUSLY WITH CARCINOGEN FOR DU RATION OF STUDY (STUDY DURATION: 368 D), Route [Inhibitor]: DERMAL, Species: MOUSE, Strain/Sex: ICR/FEMALE, Target Tissue: Type of Lesion: SKIN: PAPILLOMA, Dose [Carcinogen]: 5 UG IN 0.1 ML ACETONE 3/WK FOR DURATION OF STUDY, Promoter: NONE USED): 14/50 (28%), 7/50 (14%), 50%, not calculated
- tumour outcome (control, treated, inhibition, significance) (Carcinogen: BENZO[A]PYRENE, 50-32-8, Dose [Inhibitor]: 3 MG IN 0.1 ML ACETONE 3/WK ADMINISTERED SIMULTANEOUSLY WITH CARCINOGEN FOR DURATION OF STUDY (STUDY DURATION: 368 D), Route [Inhibitor]: DERMAL, Species: MOUSE, Strain/Sex: ICR/FEMALE, Target Tissue: Type of Lesion: SKIN: SQUAMOUS CARCINOMA, Dose [Carcinogen]: 5 UG IN 0.1 ML ACETONE 3/WK FOR DURATION OF STUDY, Promoter: NONE USED): 10/50 (20%), 3/50 (6%), 70%, not calculated

SMILES: O=[Se]=O
- tumour outcome (control, treated, inhibition, significance) (Carcinogen: N-2-FLUORENYLACETMIDE, 53-96-3, Dose [Inhibitor]: 0.1 PPM IN DIET DAILY STARTING SIMULTANEOUSLY WITH CARCINOGEN TREATMENT AT AGE 35 D AND CONTINUING FOR DURATION OF STUDY, Route [Inhibitor]: ORAL, Species: RAT, Strain/Sex: OSU-BROWN/FEMALE, Target Tissue: Type of Lesion: LIVER: HEPATOMA, Dose [Carcinogen]: 150 PPM IN DIET DAILY FOR DURATION OF STUDY, Promoter: NONE USED): 85%, 100%, -18%, not calculated
- tumour outcome (control, treated, inhibition, significance) (Carcinogen: N-2-FLUORENYLACETMIDE, 53-96-3, Dose [Inhibitor]: 0.1 PPM IN DIET DAILY STARTING SIMULTANEOUSLY WITH CARCINOGEN TREATMENT AT AGE 35 D AND CONTINUING FOR DURATION OF STUDY, Route [Inhibitor]: ORAL, Species: RAT, Strain/Sex: OSU-BROWN/FEMALE, Target Tissue: Type of Lesion: MAMMARY GLAND: ADENOCARCINOMA, Dose [Carcinogen]: 150 PPM IN DIET DAILY FOR DURATION OF STUDY, Promoter: NONE USED): 94%, 100%, -6%, not calculated
- tumour outcome (control, treated, inhibition, significance) (Carcinogen: N-2-FLUORENYLACETMIDE, 53-96-3, Dose [Inhibitor]: 0.5 PPM IN DIET DAILY STARTING SIMULTANEOUSLY WITH CARCINOGEN TREATMENT AT AGE 35 D AND CONTINUING FOR DURATION OF STUDY, Route [Inhibitor]: ORAL, Species: RAT, Strain/Sex: OSU-BROWN/FEMALE, Target Tissue: Type of Lesion: LIVER: HEPATOMA, Dose [Carcinogen]: 150 PPM IN DIET DAILY FOR DURATION OF STUDY, Promoter: NONE USED): 85%, 80%, 6%, not calculated
- tumour outcome (control, treated, inhibition, significance) (Carcinogen: N-2-FLUORENYLACETMIDE, 53-96-3, Dose [Inhibitor]: 0.5 PPM IN DIET DAILY STARTING SIMULTANEOUSLY WITH CARCINOGEN TREATMENT AT AGE 35 D AND CONTINUING FOR DURATION OF STUDY, Route [Inhibitor]: ORAL, Species: RAT, Strain/Sex: OSU-BROWN/FEMALE, Target Tissue: Type of Lesion: MAMMARY GLAND: ADENOCARCINOMA, Dose [Carcinogen]: 150 PPM IN DIET DAILY FOR DURATION OF STUDY, Promoter: NONE USED): 94%, 85%, 10%, not calculated
- tumour outcome (control, treated, inhibition, significance) (Carcinogen: N-2-FLUORENYLACETMIDE, 53-96-3, Dose [Inhibitor]: 2.5 PPM IN DIET DAILY STARTING SIMULTANEOUSLY WITH CARCINOGEN TREATMENT AT AGE 35 D AND CONTINUING FOR DURATION OF STUDY, Route [Inhibitor]: ORAL, Species: RAT, Strain/Sex: OSU-BROWN/FEMALE, Target Tissue: Type of Lesion: LIVER: HEPATOMA, Dose [Carcinogen]: 150 PPM IN DIET DAILY FOR DURATION OF STUDY, Promoter: NONE USED): 85%, 50%, 41%, not calculated
- tumour outcome (control, treated, inhibition, significance) (Carcinogen: N-2-FLUORENYLACETMIDE, 53-96-3, Dose [Inhibitor]: 2.5 PPM IN DIET DAILY STARTING SIMULTANEOUSLY WITH CARCINOGEN TREATMENT AT AGE 35 D AND CONTINUING FOR DURATION OF STUDY, Route [Inhibitor]: ORAL, Species: RAT, Strain/Sex: OSU-BROWN/FEMALE, Target Tissue: Type of Lesion: MAMMARY GLAND: ADENOCARCINOMA, Dose [Carcinogen]: 150 PPM IN DIET DAILY FOR DURATION OF STUDY, Promoter: NONE USED): 94%, 68%, 28%, not calculated
- tumour outcome (control, treated, inhibition, significance) (Carcinogen: NONE USED, Dose [Inhibitor]: 0.1 PPM IN DRINKING WATER DAILY FOR 22 MO STARTING AT AGE 2 MO AND CONTINUING FOR DURATION OF STUDY (STUDY DURATION: 22, Route [Inhibitor]: ORAL, Species: MOUSE, Strain/Sex: C3H/FEMALE, Target Tissue: Type of Lesion: MAMMARY GLAND: ADENOCARCINOMA, Promoter: NONE USED): 42%, 25%, 40%, not calculated
- tumour outcome (control, treated, inhibition, significance) (Carcinogen: NONE USED, Dose [Inhibitor]: 0.5 PPM IN DRINKING WATER DAILY FOR 22 MO STARTING AT AGE 2 MO AND CONTINUING FOR DURATION OF STUDY (STUDY DURATION: 22, Route [Inhibitor]: ORAL, Species: MOUSE, Strain/Sex: C3H/FEMALE, Target Tissue: Type of Lesion: MAMMARY GLAND: ADENOCARCINOMA, Promoter: NONE USED): 42%, 19%, 55%, not calculated
- tumour outcome (control, treated, inhibition, significance) (Carcinogen: NONE USED, Dose [Inhibitor]: 1 PPM IN DRINKING WATER DAILY FOR 22 MO STARTING AT AGE 2 MO AND CONTINUING FOR DURATION OF STUDY (STUDY DURATION: 22 MO, Route [Inhibitor]: ORAL, Species: MOUSE, Strain/Sex: C3H/FEMALE, Target Tissue: Type of Lesion: MAMMARY GLAND: ADENOCARCINOMA, Promoter: NONE USED): 42%, 10%, 76%, not calculated
- tumour outcome (control, treated, inhibition, significance) (Carcinogen: NONE USED, Dose [Inhibitor]: 2 PPM IN DRINKING WATER DAILY FOR DURATION OF STUDY (STUDY DURATION: 16 MO), Route [Inhibitor]: ORAL, Species: MOUSE, Strain/Sex: C3H/FEMALE, Target Tissue: Type of Lesion: MAMMARY GLAND: ADENOCARCINOMA, Promoter: NONE USED): 82%, 10%, 88%, not calculated
- tumour outcome (control, treated, inhibition, significance) (Carcinogen: NONE USED, Dose [Inhibitor]: 5 PPM IN DRINKING WATER DAILY STARTING AT AGE 1 MO AND CONTINUING FOR LIFE (STUDY DURATION: LIFE), Route [Inhibitor]: ORAL, Species: MOUSE, Strain/Sex: C3H/FEMALE, Target Tissue: Type of Lesion: MAMMARY GLAND: TUMOR, Promoter: NONE USED): 82%, 36%, 56%, p<0.005
- tumour outcome (control, treated, inhibition, significance) (Carcinogen: NONE USED, Dose [Inhibitor]: 15 PPM IN DRINKING WATER DAILY STARTING AT AGE 1 MO AND CONTINUING FOR LIFE (STUDY DURATION: LIFE), Route [Inhibitor]: ORAL, Species: MOUSE, Strain/Sex: C3H/FEMALE, Target Tissue: Type of Lesion: MAMMARY GLAND: TUMOR, Promoter: NONE USED): 82%, 33%, 60%, p<0.005

SMILES: CC(C)=CCC/C(C)=C/Cc1cc2ccc(=O)oc2cc1O
- tumour outcome (control, treated, inhibition, significance) (Carcinogen: 7,12-DIMETHYLBENZ[A]ANTHRACENE, 57-97-6, Dose [Inhibitor]: 0, 400 NMOL ONCE APPLIED 5 MIN PRIOR TO CARCINOGEN DOSE (STUDY DURATION: 25 WK), Route [Inhibitor]: DERMAL, Species: MOUSE, Strain/Sex: SENCAR, Target Tissue: Type of Lesion: SKIN: PAPILLOMA, Dose [Carcinogen]: 10 NMOL ONCE, Promoter: 12-O-TETRADECANOYLPHORBOL-13-ACETATE, 16561-29-8): 96%, 96%, 0%, not significant
- tumour outcome (control, treated, inhibition, significance) (Carcinogen: 7-12-DIMETHYLBENZ[A]ANTHRACENE, 57-97-6, Dose [Inhibitor]: 0, 1200 NMOL ONCE APPLIED 5 MIN PRIOR TO CARCINOGEN DOSE (STUDY DURATION: 25 WK), Route [Inhibitor]: DERMAL, Species: MOUSE, Strain/Sex: SENCAR, Target Tissue: Type of Lesion: SKIN: PAPILLOMA, Dose [Carcinogen]: 10 NMOL ONCE, Promoter: 12-O-TETRADECANOYLPHORBOL-13-ACETATE, 16561-29-8): 93%, 96%, -3%, not significant
- tumour outcome (control, treated, inhibition, significance) (Carcinogen: BENZO[A]PYRENE, 50-32-8, Dose [Inhibitor]: 0, 400 NMOL ONCE APPLIED 5 MIN PRIOR TO CARCINOGEN DOSE (STUDY DURATION: 25 WK), Route [Inhibitor]: DERMAL, Species: MOUSE, Strain/Sex: SENCAR, Target Tissue: Type of Lesion: SKIN: PAPILLOMA, Dose [Carcinogen]: 200 NMOL ONCE, Promoter: 12-O-TETRADECANOYLPHORBOL-13-ACETATE, 16561-29-8): 91%, 91%, 0%, not significant
- tumour outcome (control, treated, inhibition, significance) (Carcinogen: BENZO[A]PYRENE, 50-32-8, Dose [Inhibitor]: 0, 1200 NMOL ONCE APPLIED 5 MIN PRIOR TO CARCINOGEN DOSE (STUDY DURATION: 25 WK), Route [Inhibitor]: DERMAL, Species: MOUSE, Strain/Sex: SENCAR, Target Tissue: Type of Lesion: SKIN: PAPILLOMA, Dose [Carcinogen]: 200 NMOL ONCE, Promoter: 12-O-TETRADECANOYLPHORBOL-13-ACETATE, 16561-29-8): 92%, 93%, -1%, not significant
